These results are taken from US8846951B2 (AbbVie Inc., priority 2009, dated 2014).

Read-outs that look alike come from different tables or passages of the source.

The target in experiment [1] is T1, 5HT2C receptors (Homo sapiens, UniProt P28335).
T1 sequence (P28335 33-458): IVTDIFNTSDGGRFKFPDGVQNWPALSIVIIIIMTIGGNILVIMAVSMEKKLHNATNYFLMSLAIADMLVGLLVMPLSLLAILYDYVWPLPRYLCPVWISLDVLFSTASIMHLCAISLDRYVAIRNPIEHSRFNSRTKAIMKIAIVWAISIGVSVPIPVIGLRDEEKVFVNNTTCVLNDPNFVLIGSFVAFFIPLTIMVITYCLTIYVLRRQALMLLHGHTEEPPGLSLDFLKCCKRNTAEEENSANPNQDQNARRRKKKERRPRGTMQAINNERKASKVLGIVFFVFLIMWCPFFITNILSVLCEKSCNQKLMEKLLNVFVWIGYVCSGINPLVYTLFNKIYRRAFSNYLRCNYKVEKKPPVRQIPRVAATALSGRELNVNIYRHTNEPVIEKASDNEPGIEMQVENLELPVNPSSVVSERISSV
Description: Human 5-HT2C functional high throughput screening assay in CHO-K1 cells (calcium flux). Set-up: expressed in transfected cells; host or cells: CHO-K1 cells. The class given is cell-based. To be noted: for EC50: CHO-K1 cells, calcium flux; for Emax: CHO-K1, 5-HT2C, maximum functional response as percentage relative to the effect of serotonin. The procedure:
(§1) (iii) Human 5-HT2C and 5-HT2B Functional High Throughput Screening Assays in CHO-K1 Cells
(§2) CHO-K1 cells over-expressing 5HT2C or 5HT2B receptors were grown in 1272 cm^2 flasks to 70-80% confluency in UltraCHO media (Lonza, Walkersville, Md.) supplemented with 1% dialyzed fetal bovine serum (FBS), 250 μg/mL zeocin, 100 U/mL penicillin and 100 μg/mL streptomycin, and 400 μg/mL geneticin. The cells were dissociated from the flasks using 0.05% trypsin, resuspended in Recovery™ cell culture freezing medium (Invitrogen, Carlsbad, Calif.) and stored in liquid nitrogen until use. The calcium flux experiments were done using frozen cells. The cells were diluted in media containing 1% dialyzed FBS and 100 U/mL penicillin and 100 μg/mL streptomycin and plated into 384-well poly-D-Lysine coated plates (15,000 cells/well). Then the plates were incubated overnight in a cell incubator at 37° C., 5% CO2. On the next day, the growth media was replaced with media without FBS and further incubated overnight. On day three, the changes in intracellular Ca^2+ were determined using calcium sensitive fluorescent dye, Ca4 (MDS Analytical Technologies, Sunnyvale, Calif.) by loading 15 μL of diluted dye in Hank's Balanced Salt Solution and 20 mM Hepes buffer (pH 7.4) with final concentration of 2.5 mM probenecid into the cells containing media. Then the cells were incubated at room temperature for 60 minutes in dark.
(§3) After incubation, the cell plates were transferred to FLIPR™ (MDS) and their fluorescence measurements were read at an excitation wavelength of 480 nm and an emission wavelength of 530 nm at 25° C. The baseline fluorescence was measured for the first 10 seconds and then 15 μL of 4× concentration of serotonin/test compound was added to the cells. The fluorescence intensity was captured every second for the first 1 minute followed by every 5 seconds for an additional 2 minutes. The increase in fluorescent response by a test compound was normalized to the response of serotonin and used to determine agonist activity. The concentration response of compounds was done from a starting concentration of 10 μM, 1:10 dilution across 6 wells with a final dimethyl sulfoxide concentration of 0.2% and was fitted using a 4-parameter logistic equation. The concentration at which a compound exerts half its maximal effect was named as ‘effective concentration 50’ or ‘EC50’. Emax is the maximum functional response or efficacy expressed as a percentage relative to the effect of serotonin.
(Calcium flux is commonly read through the fluorescence of an indicator in the cells.)

Experiment [2] has as its target T2, 5HT2B receptors (Homo sapiens, UniProt P41595).
T2 construct: expressed in transfected cells; host or cells: CHO-K1 cells
Briefly: Human 5-HT2B functional high throughput screening assay in CHO-K1 cells (calcium flux). The class given is cell-based. To be noted: for EC50: CHO-K1 cells, calcium flux. The protocol:
as §1, §2, §3

The mark [3] stands for this setting: 5-HT2C agonist activity, read-out: EC50.
The mark [4] stands for this setting: 5-HT2B agonist activity, read-out: EC50.
Setting [5] is: 5-HT2B, maximum functional response as percentage relative to the effect of serotonin.

T2 sequence (P41595 whole entry): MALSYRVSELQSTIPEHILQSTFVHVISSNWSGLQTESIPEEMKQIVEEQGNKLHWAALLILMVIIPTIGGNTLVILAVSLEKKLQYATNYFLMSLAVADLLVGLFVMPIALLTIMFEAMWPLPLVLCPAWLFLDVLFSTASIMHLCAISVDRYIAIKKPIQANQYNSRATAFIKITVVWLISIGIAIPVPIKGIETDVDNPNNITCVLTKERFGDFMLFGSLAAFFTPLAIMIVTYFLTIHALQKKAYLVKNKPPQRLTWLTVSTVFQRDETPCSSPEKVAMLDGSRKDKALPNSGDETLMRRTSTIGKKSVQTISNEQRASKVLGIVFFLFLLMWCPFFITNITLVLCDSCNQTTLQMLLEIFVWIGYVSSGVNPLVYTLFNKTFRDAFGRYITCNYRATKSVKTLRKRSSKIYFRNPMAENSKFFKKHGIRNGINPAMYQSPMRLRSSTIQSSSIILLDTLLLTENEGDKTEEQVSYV

What is called EC50 is the concentration needed to bring the measured effect to its halfway point. One may read the Emax as the greatest response seen or fitted, relative to the assay's reference. For the compound `C[C@H](Cc1ccccc1)Oc1ccc2c(c1)C(=O)NC[C@@H]1CN(Cc3ccccc3)C[C@@H]21` (mixture of isomers) [Example 118, Trans-2-benzyl-8-((R)-1-phenylpropan-2-yloxy)-1,2,3,3a,4,5-hexahydrobenzo[e]pyrrolo[3,4-c]azepin-6(10bH)-one], the results for the EC50 in experiment [1] (setting [3]) and in experiment [2] (setting [4]) were 300 nM and over 10000 nM, respectively. Moreover, the Emax is over 120% in experiment [1] (read-out: Emax) and “inactive” in experiment [2] (setting [5]).
For `C[C@@H](Cc1ccccc1)Oc1ccc2c(c1)C(=O)NC[C@@H]1CN(Cc3ccccc3)C[C@@H]21` (mixture of isomers) [Example 120, Trans-2-benzyl-8-((S)-1-phenylpropan-2-yloxy)-1,2,3,3a,4,5-hexahydrobenzo[e]pyrrolo[3,4-c]azepin-6(10bH)-one], in that order: 400 nM, over 10000 nM, 110% and “inactive”.
Consider `C[C@@H](Cc1ccccc1)Oc1ccc2c(c1)C(=O)NC[C@@H]1CNC[C@@H]21` (mixture of isomers) [Example 149, Trans-8-((S)-1-phenylpropan-2-yloxy)-1,2,3,3a,4,5-hexahydrobenzo[e]pyrrolo[3,4-c]azepin-6(10bH)-one], for which the EC50 was 4 nM in experiment [1] (setting [3]) and over 10000 nM in experiment [2] (setting [4]). The Emax is 120% in experiment [1] (read-out: Emax) and “inactive” in experiment [2] (setting [5]).
As to `C[C@@H](Oc1ccc2c(c1)C(=O)NC[C@@H]1CNC[C@@H]21)c1ccccc1` (mixture of isomers) [Example 150, Trans-8-((R)-1-phenylethoxy)-1,2,3,3a,4,5-hexahydrobenzo[e]pyrrolo[3,4-c]azepin-6(10bH)-one], the Emax is over 120% in experiment [1] and “inactive” in experiment [2] (setting [5]). For the same compound, the EC50 in experiment [1] (EC50, 5-HT2C agonist activity) was 50 nM; in experiment [2] (EC50, 5-HT2B agonist activity), over 10000 nM.
In the same order, the values of `C[C@H](Oc1ccc2c(c1)C(=O)NC[C@@H]1CNC[C@@H]21)c1ccccc1` (mixture of isomers) [Example 155, Trans-8-((S)-1-phenylethoxy)-1,2,3,3a,4,5-hexahydrobenzo[e]pyrrolo[3,4-c]azepin-6(10bH)-one] are over 120%, “inactive”, 50 nM and over 10000 nM.
As for `c1cnc2c(c1)C1CNCC1CCO2` (mixture of isomers) [Example 260, 2,3,3a,4,5,10b-Hexahydro-1H-pyrrolo[3′,4′:4,5]oxepino[2,3-b]pyridine], the results for the EC50 in experiment [1] (setting [3]) and in experiment [2] (setting [4]) were 1000 nM and 3000 nM, respectively. The Emax in experiment [1] was over 120%; in experiment [2] (CHO-K1), 45%.
Take `CC(O)c1cc(-c2ccc3c(c2)C(=O)NC[C@H]2CN(C)C[C@H]32)ccc1F` (mixture of isomers) [Example 307, (3aS,10bS)-8-[4-Fluoro-3-(1-hydroxyethyl)phenyl]-2-methyl-2,3,3a,4,5,10b-hexahydropyrrolo[3,4-d][2]benzazepin-6(1H)-one]: the values for the EC50 in experiment [1] (setting [3]) and in experiment [2] (setting [4]) were 0.7 nM and over 10000 nM, respectively. Moreover, the Emax in experiment [1] (read-out: Emax) was 100%; in experiment [2] (setting [5]), “inactive”.
For `CN1C[C@H]2CNC(=O)c3cc(-c4ccc(F)cc4)ccc3[C@@H]2C1` (relative stereo) [Example 75, Trans-8-(4-fluorophenyl)-2-methyl-1,2,3,3a,4,5-hexahydrobenzo[e]pyrrolo[3,4-c]azepin-6(10bH)-one], the Emax was over 120% in experiment [1] (read-out: Emax) and “inactive” in experiment [2] (setting [5]). For the same compound, the EC50 in experiment [2] (setting [4]) was over 10000 nM.
Regarding `CN1C[C@H]2CNC(=O)c3cc(-c4cccc(F)c4)ccc3[C@@H]2C1` (relative stereo) [Example 76, Trans-8-(3-fluorophenyl)-2-methyl-1,2,3,3a,4,5-hexahydrobenzo[e]pyrrolo[3,4-c]azepin-6(10bH)-one], the EC50 was 11 nM in experiment [1] (setting [3]) and over 10000 nM in experiment [2] (setting [4]). For the same compound, the Emax in experiment [1] (read-out: Emax) is over 120%; in experiment [2] (setting [5]) it was “inactive”.
In the same order, the values of `CN1C[C@H]2CNC(=O)c3cc(-c4ccccc4F)ccc3[C@@H]2C1` (relative stereo) [Example 77, Trans-8-(2-fluorophenyl)-2-methyl-1,2,3,3a,4,5-hexahydrobenzo[e]pyrrolo[3,4-c]azepin-6(10bH)-one] are 5.8 nM, over 10000 nM, over 120% and “inactive”.
In the same order, the values of `CN1C[C@H]2CNC(=O)c3cc(-c4ccc(F)c(F)c4)ccc3[C@@H]2C1` (relative stereo) [Example 78, Trans-8-(3,4-difluorophenyl)-2-methyl-1,2,3,3a,4,5-hexahydrobenzo[e]pyrrolo[3,4-c]azepin-6(10bH)-one] are 6.6 nM, over 10000 nM, over 120% and “inactive”.
In the same order, the values of `CN1C[C@H]2CNC(=O)c3cc(-c4ccc(C(F)(F)F)cc4)ccc3[C@@H]2C1` (relative stereo) [Example 79, Trans-2-methyl-8-(4-(trifluoromethyl)phenyl)-1,2,3,3a,4,5-hexahydrobenzo[e]pyrrolo[3,4-c]azepin-6(10bH)-one] are 30 nM, over 10000 nM, over 120% and “inactive”.
On to `CN1C[C@H]2CNC(=O)c3cc(-c4ccc5ccccc5c4)ccc3[C@@H]2C1` (relative stereo) [Example 80, Trans-2-methyl-8-(naphthalen-2-yl)-1,2,3,3a,4,5-hexahydrobenzo[e]pyrrolo[3,4-c]azepin-6(10bH)-one], for which the EC50 in experiment [1] (setting [3]) was 22 nM; in experiment [2] (setting [4]), over 10000 nM. In addition, the Emax is over 120% in experiment [1] (read-out: Emax) and “inactive” in experiment [2] (setting [5]).
In the same order, the values of `Cc1cccc(-c2ccc3c(c2)C(=O)NC[C@@H]2CN(C)C[C@@H]32)c1` (relative stereo) [Example 81, Trans-2-methyl-8-m-tolyl-1,2,3,3a,4,5-hexahydrobenzo[e]pyrrolo[3,4-c]azepin-6(10bH)-one] are 1.7 nM, over 10000 nM, over 120% and “inactive”.
`Cc1ccc(-c2ccc3c(c2)C(=O)NC[C@@H]2CN(C)C[C@@H]32)cc1` (relative stereo) [Example 82, Trans-2-methyl-8-p-tolyl-1,2,3,3a,4,5-hexahydrobenzo[e]pyrrolo[3,4-c]azepin-6(10bH)-one]: the EC50 in experiment [1] (setting [3]) is 4.2 nM; in experiment [2] (setting [4]), over 10000 nM. In addition, the Emax in experiment [1] (read-out: Emax) is over 120%; in experiment [2] (setting [5]) it was “inactive”.
In the same order, the values of `CN1C[C@H]2CNC(=O)c3cc(-c4ccc(S(C)(=O)=O)cc4)ccc3[C@@H]2C1` (relative stereo) [Example 83, Trans-2-methyl-8-(4-(methylsulfonyl)phenyl)-1,2,3,3a,4,5-hexahydrobenzo[e]pyrrolo[3,4-c]azepin-6(10bH)-one] are 200 nM, over 10000 nM, over 120% and “inactive”.
Regarding `CN1C[C@H]2CNC(=O)c3cc(-c4cccc(S(C)(=O)=O)c4)ccc3[C@@H]2C1` (relative stereo) [Example 84, Trans-2-methyl-8-(3-(methylsulfonyl)phenyl)-1,2,3,3a,4,5-hexahydrobenzo[e]pyrrolo[3,4-c]azepin-6(10bH)-one], the Emax was over 120% in experiment [1] (read-out: Emax) and “inactive” in experiment [2] (setting [5]). For the same compound, the EC50 in experiment [2] (setting [4]) was over 10000 nM.
